Key:
PDE5A = biological target: T1, PDE5A (Homo sapiens, UniProt O76074); assay: PDE enzyme  assay, PDE5A; format: biochemical
T1 construct: purchased Eurofins Panlabs Discovery Services Taiwan, Ltd. (contract assay); host or cells: insect Sf9 cells
Experimental: (§1) Enzyme assays for various subtypes of PDE (Table 1 and Figure 4) were conducted by Eurofins Panlabs Discovery Services Taiwan, Ltd. (New Taipei City, Taiwan). In the assays, five or six concentrations of nobiletin over five or six orders of magnitude were examined in experiments conducted in duplicate to determine the IC50 (concentration of nobiletin exerting half-maximal inhibition of control-specific activity). IC50 values were determined by nonlinear least squares regression analysis using MathIQTM (ID Business Solutions Ltd., Woking, UK). FAM-cAMP, FAM-cGMP (0.1 μM), and 100 μM [^3H]cGMP + cGMP were used for the substrate in the human recombinant insect Sf9 cells or Bovine retinal rod outer segments depending on the PDE subtype. The spectrofluorometric quantitation of fluorescein-AMP-IMAP, fluorescein-GMP-IMAP, or [^3H] guanosine was used depending on the PDE subtype. A known […] of each PDE was used as the positive control.

[1] = tested on: PER2::LUC rhythm in peripheral tissues (kidney, liver, submandibular gland); assay: In vivo bioluminescence imaging of peripheral PER2::LUC rhythm; set-up: species or system mice; conditions: 100 mg/kg i.p., 3 days
Experimental: Male C57BL/6J mice (7 weeks old) were purchased from Charles River Japan (Kanagawa, Japan) and used for the serum hormone assay and RT-PCR. Male ICR mice were purchased from Tokyo Laboratory Animals Science Co., Ltd. (Tokyo, Japan), and female PERIOD2::LUCIFERASE (PER2::LUC) knock-in mice (ICR background) bred at Waseda University were used for blood glucose measurements and in vivo imaging assays, respectively. The mice were all housed under conditions of controlled temperature (23 °C ± 3 °C), humidity (50% ± 20%), and lighting (lights on from 07:00 to 19:00 at Taisho Pharmaceutical Co., Ltd. or from 08:00 to 20:00 at Waseda University). In the 24 h cycle, Zeitgeber time 0 (ZT0) was designated as the time when the lights were turned on, and ZT12 was designated as the time when the lights were turned off. All the mice were given access to food and tap water ad libitum, and nobiletin (10–100 mg/kg; purchased from FUJIFILM Wako Pure Chemical Corporation, Osaka, Japan) was administered by intraperitoneal (i.p.) injection in the vehicle (10 mL/kg body weight) containing 0.5% carboxymethyl cellulose (CMC). Rolipram (PDE4 inhibitor, FUJIFILM Wako Pure Chemical Corporation) and SR1078 (RORα/γ agonist, FUJIFILM Wako Pure Chemical Corporation) were also used for the experiment at 10 mg/kg in 0.5% CMC [12]. Mice were euthanized by rapid decapitation for whole blood samples.
An in vivo imaging system (IVIS) (Caliper Life Sciences, Hopkinton, MA, USA) was used to monitor the PER2::LUC activity rhythm waveform in the peripheral tissues (kidney, liver, and submandibular gland) of the mice. A previously developed protocol and analytical method to monitor bioluminescence oscillations in peripheral tissues was used. Briefly, the mice were anesthetized with isoflurane (FUJIFILM Wako Pure Chemical Corporation, Osaka, Japan) and enriched with oxygen. Mice were anesthetized and injected subcutaneously on the back and near the neck with D-luciferin potassium salt (FUJIFILM Wako Pure Chemical Corporation, Osaka, Japan) at a dose of 15 mg/kg body weight. Images were taken using an IVIS, in the dorsal-up position for the kidney 8 min after injection and in the ventral-up position for the liver and the submandibular gland 10 min after injection. Images were obtained six times/day at 4 h intervals (ZT3, 7, 11, 15, 19, and 23) (Figure 1 and Figure 2). The mice were returned to their home cages after each imaging procedure and quickly recovered from isoflurane anesthesia. Bioluminescence emitted from the kidneys and liver was calculated automatically using Living Image 3.2 software (Caliper Life Sciences). The average photon/min value for the six time points from each day was designated as 100%, and the bioluminescence rhythm for the entire day was expressed as a percentage of each set of six time points for individual organs. The peak phase and amplitude of the normalized data were determined using a single cosinor procedure program (Acro.exe version 3.5 [14]).
Figure 1 Experimental protocol for in vivo imaging. PER2::LUC female mice were treated with control (0.5% CMC) or nobiletin (100 mg/kg) at the same time points (ZT0, 4, 8, 12, 16, or 20) for three consecutive days, and then measured for peripheral clocks by in vivo whole-body imaging to examine phase–response curves (n = 4–5 in each).
Figure 2 Time-of-day dependence of peripheral PER2::LUC changes in nobiletin injection. (A) Representative photo images of in vivo PER2::LUC bioluminescence in the kidney, liver, and submandibular gland (sab gla). (B) Waveforms of PER2::LUC rhythm in each tissue at each treatment time. (C,D) Phase–response curves or amplitude–response curves of nobiletin injections in peripheral PER2::LUC rhythm. […]

PDE3A = biological target: T2, PDE3A (Homo sapiens, UniProt Q14432); assay: PDE enzyme  assay, PDE3A; format: biochemical
T2 construct: purchased Eurofins Panlabs Discovery Services Taiwan, Ltd. (contract assay); host or cells: insect Sf9 cells
T2 sequence (Q14432 whole entry): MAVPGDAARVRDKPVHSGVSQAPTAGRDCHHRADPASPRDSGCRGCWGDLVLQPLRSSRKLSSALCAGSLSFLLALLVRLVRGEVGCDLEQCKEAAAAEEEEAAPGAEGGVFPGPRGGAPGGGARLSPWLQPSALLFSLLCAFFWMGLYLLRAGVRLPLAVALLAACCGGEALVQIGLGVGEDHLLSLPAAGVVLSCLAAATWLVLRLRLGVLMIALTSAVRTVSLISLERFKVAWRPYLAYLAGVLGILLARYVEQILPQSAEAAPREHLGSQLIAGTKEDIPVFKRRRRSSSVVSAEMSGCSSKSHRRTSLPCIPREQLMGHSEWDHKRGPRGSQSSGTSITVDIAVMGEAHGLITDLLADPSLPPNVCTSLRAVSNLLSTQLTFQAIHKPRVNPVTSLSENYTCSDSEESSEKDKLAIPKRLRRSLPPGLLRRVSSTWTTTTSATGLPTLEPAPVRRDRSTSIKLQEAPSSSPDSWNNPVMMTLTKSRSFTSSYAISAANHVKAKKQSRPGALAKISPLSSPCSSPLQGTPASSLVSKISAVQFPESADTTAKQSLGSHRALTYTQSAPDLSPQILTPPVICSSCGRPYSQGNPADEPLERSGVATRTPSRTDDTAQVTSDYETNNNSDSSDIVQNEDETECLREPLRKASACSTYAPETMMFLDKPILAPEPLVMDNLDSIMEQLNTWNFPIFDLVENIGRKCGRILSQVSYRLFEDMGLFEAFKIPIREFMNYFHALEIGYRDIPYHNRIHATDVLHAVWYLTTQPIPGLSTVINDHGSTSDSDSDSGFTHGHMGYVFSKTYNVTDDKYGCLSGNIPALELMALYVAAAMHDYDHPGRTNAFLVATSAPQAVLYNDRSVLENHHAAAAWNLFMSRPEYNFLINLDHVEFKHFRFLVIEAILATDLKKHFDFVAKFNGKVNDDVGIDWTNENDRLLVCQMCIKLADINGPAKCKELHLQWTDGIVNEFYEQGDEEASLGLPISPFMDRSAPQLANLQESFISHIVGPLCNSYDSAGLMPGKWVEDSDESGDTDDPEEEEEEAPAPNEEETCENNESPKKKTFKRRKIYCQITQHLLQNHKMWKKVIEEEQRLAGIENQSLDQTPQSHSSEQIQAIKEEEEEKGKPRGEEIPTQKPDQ
Experimental: as §1

PDE10A2 = biological target: T3, PDE10A2 (Homo sapiens, UniProt Q9Y233); assay: PDE enzyme (kinase) assay, PDE10A2; format: biochemical
T3 construct: purchased Eurofins Panlabs Discovery Services Taiwan, Ltd. (contract assay); host or cells: insect Sf9 cells
T3 sequence (Q9Y233 267-1055): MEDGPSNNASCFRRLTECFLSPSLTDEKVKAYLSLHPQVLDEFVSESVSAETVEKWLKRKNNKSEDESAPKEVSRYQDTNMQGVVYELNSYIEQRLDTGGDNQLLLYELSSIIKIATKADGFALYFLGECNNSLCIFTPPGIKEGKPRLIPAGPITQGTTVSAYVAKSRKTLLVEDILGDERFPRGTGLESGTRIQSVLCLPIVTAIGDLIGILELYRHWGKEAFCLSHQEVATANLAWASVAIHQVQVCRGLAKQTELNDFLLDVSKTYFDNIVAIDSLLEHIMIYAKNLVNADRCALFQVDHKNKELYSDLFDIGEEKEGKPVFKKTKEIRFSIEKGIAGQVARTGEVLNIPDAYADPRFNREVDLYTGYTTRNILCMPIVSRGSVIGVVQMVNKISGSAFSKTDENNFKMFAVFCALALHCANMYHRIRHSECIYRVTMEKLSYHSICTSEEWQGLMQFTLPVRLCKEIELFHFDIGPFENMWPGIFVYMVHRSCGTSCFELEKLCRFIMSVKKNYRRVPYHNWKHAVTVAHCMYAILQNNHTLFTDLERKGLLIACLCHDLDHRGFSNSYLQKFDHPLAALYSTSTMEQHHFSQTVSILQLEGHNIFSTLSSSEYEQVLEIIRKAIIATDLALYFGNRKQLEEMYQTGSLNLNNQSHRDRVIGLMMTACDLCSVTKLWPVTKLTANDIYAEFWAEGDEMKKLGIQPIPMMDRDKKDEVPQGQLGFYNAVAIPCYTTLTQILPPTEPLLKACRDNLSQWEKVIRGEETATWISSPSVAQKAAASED
Experimental: as §1
(§2) Figure 4 PDE kinase assays and the acute clock gene expression changes by PDE4 inhibitor or ROR α/γ agonist. (A) Inhibitory effect of nobiletin on PDE4A1, 4B1, and 10A2. Various concentrations of nobiletin (1–100 μM) were used for IC50 determination (Table 1). Values represent the mean of two experiments. Positive controls were rolipram for PDE4A1 and 4B1 and papaverine for PDE10A2. […]

[2] = set-up: method as in doi:10.1016/j.jddst.2022.104013; conditions: rats; cited from earlier work
PDE4A1A = biological target: T4, PDE4A1A (Homo sapiens, UniProt P27815); assay: PDE enzyme (kinase) assay, PDE4A1A; format: biochemical
T4 construct: purchased Eurofins Panlabs Discovery Services Taiwan, Ltd. (contract assay); host or cells: insect Sf9 cells
T4 sequence (P27815 1-647 isoform P27815-4): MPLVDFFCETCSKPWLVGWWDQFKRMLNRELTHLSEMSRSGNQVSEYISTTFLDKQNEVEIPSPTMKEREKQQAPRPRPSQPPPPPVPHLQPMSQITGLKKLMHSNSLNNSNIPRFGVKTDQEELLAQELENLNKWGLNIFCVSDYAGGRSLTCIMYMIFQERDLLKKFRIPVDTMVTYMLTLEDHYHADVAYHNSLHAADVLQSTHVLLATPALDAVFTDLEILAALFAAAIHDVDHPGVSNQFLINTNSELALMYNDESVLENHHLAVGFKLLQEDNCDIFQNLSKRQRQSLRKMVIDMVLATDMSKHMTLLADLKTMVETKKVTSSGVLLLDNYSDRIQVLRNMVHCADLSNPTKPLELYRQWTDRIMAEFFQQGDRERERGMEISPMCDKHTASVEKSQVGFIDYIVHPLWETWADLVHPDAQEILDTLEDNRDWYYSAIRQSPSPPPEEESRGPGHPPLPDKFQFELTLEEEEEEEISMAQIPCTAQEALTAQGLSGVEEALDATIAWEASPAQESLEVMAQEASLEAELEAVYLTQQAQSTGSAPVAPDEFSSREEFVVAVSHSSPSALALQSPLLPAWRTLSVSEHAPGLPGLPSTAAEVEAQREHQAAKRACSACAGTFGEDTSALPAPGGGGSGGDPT
Experimental: as §1, §2

COc1ccc(-c2cc(=O)c3c(OC)c(OC)c(OC)c(OC)c3o2)cc1OC [nobiletin]
IC50 (PDE5A): 14.8 µM | amplitude of PER2::LUC rhythm vs control ([1]; kidney, liver and submandibular gland (all three tissues), treatment at ZT16): increased | phase of PER2::LUC rhythm vs control ([1]; kidney, administration at ZT4): phase advancement | amplitude of PER2::LUC rhythm vs control ([1]; kidney, treatment at ZT0 or 4): decreased | phase of PER2::LUC rhythm vs control ([1]; kidney, treatment at ZT20): phase delay | amplitude of PER2::LUC rhythm vs control ([1]; liver, treatment at ZT12): decreased | phase of PER2::LUC rhythm vs control ([1]; liver, treatment at ZT12): phase-advanced | phase of PER2::LUC rhythm vs control ([1]; submandibular gland, administration at ZT4): phase advancement | IC50 (PDE3A): 16 µM | IC50 (PDE10A2; IC50, PDE10A2, bound stated in the discussion): ≤ 6.03 µM | IC50 (PDE10A2; IC50 Dose, PDE10A2, duplicate): 1.51 µM | time of the highest plasma concentration [2]: 2 to 4 h | IC50 (PDE4A1A; IC50, PDE4A1A, bound stated in the discussion): ≤ 6.03 µM | IC50 (PDE4A1A; IC50 Dose, PDE4A1A, duplicate): 5.23 µM

— article PMC11123956, “Nobiletin Stimulates Adrenal Hormones and Modulates the Circadian Clock in Mice” (Nutrients, 2024)
